Assay [1] addresses human recombinant sGC enzyme (Homo sapiens (Human), UniProt Q02108+Q02153). Kind of assay: Size Exclusion Chromatography (SEC) competition binding assay using [3H] Ex-77B as the radioligand. Conditions: [3H] Ex-77B radioligand, 24 hours at 37° C. The method, then: Binding Assay: The binding potencies of sGC compounds to the human recombinant sGC enzyme were determined in a Size Exclusion Chromatography (SEC) competition binding assay using [^3H] Ex-77B as the radioligand. [^3H] Ex-77B was prepared using a standardardized tritium exchange procedure. The parent (non-labeled) molecule was first iodinated then a Pd-catalyzed iodine to tritium exchange provided the labeled compound. […] Assays were conducted in 96-well plates in a total volume of 200 μL. […] Non-specific binding was defined by competition with 1 μM of Ex-77B. After the incubation period, the binding mixtures were loaded onto the gel-filtration plate (ThermoFischer Cat. No. 89808) pre-equilibrated with binding buffer and spun at 1000×g for 3 min at 4° C. on a Bench top centrifuge. The collected eluates in White Frame Clear Well Isoplates (Perkin Elmer Cat #6005040) received 100 μl of UltimaGold scintillation cocktail. The sealed plates were shaken vigorously and span, and counted after 6 hours with a Wallac Microbeta TriLux 1450 LSC & Luminescence Counter (Perkin Elmer). Data from competition experiments were analyzed to determine Ki values using one site fit Ki equation.
In general terms: SEC sorts molecules by how far they enter the pores of the column.

The target of another assay is sGC α1/β1 heterodimer (Homo sapiens (Human), UniProt Q02108+Q02153). Kind of assay: Cell-based sGC functional assay (cyclic GMP assay for sGC activator: CASA assay). The conditions noted are these: CHO-K1/sGC cells; for Emax: CHO-K1, activity expressed as percentage of compound A (standard), read-out: % Activation; for EC50: inflection point, 4P fit, read-out: IP. From the text: Cell-Based sGC Functional Assay (Cyclic GMP Assay for sGC Activator: CASA Assay)
Soluble guanylate cyclase (sGC) is a heme-containing enzyme that converts GTP to secondary messenger cGMP. Increases in cGMP levels affect several physiological processes including vasorelaxation through multiple downstream pathways. […] Heme-dependent activators (HDAs) preferentially activate sGC containing a ferrous heme group. To determine the effect of sGC activators on enzyme activity, the CASA assay was developed to monitor the generation of cGMP in a cell line that stably expresses the heterodimeric sGC protein.
A CHO-K1 cell line stably expressing the sGC α1/β1 heterodimer was generated using a standard transfection protocol. CHO-K1 cells were transfected with plasmids pIREShyghsGCα1 and pIRESneo-hsGCβ1 simultaneously using FUGENE reagent. Clones that stably express both subunits were selected with hygromycin and neomycin for ˜2 weeks. Clone #7 was chosen for the assay and was designated CHO-K1/sGC. CHO-K1/sGC cells were maintained in F-K12 medium containing 10% heat-inactivated Fetal Bovine Serum (FBS), 100 μg/mL penicillin/streptomycin, 0.5 mg/mL hygromycin and 0.25 mg/mL G418. The cells were then cryopreserved in LN2. On the day of the assay, the cells were thawed and resuspended in EBSS Assay Buffer (Sigma, E3024) supplemented with 5 mM MgCl2, 10 mM HEPES (4-(2-hydroxyethyl)piperazine-1-ethanesulfonic acid) and 0.05% BSA (bovine serum albumin) (EAB) and cell density was then adjusted to 2.25×10^5/mL with EAB. IBMX (3-isobutyl-1-methylxanthin, 0.5 mM) was added to inhibit degradation of cGMP. Compounds were diluted from DMSO stock solutions and added to the assay at a final DMSO concentration of 2.5%. Cells were pre-incubated in the presence and absence of 1 μM of Diethylenetriamine/nitric oxide adduct (DETA-NO; Sigma, 17018) for 30 min at 25° C. Compounds are subsequently added and incubated for 1 hr at 37° C. At the end of the incubation period, the reaction was terminated and the cells were lysed with the detection reagents from Cisbio Kits. The level of intracellular cGMP was determined using an HTRF-based assay kit (CisBio, 62GM2PEC), which detects the displacement of a fluorescence labeled cGMP from its specific antibody. The cGMP produced by test compounds was directly compared to the maximum cGMP production (this value was set to equal 100% activation.) of the published sGC-HDA compound A:
(Example 1 in WO 2010/065275, published Jun. 10, 2010). The test compounds' activity were then expressed as a percentage of compound A, the standard in every experiment. This percent activation was calculated either in the presence or absence of DETA-NO which was then plotted. Inflection points (IP) and maximum fold induction was derived using Abase analysis software for 4P fit.

Molecules are shown by their SMILES.

The term Ki denotes a dissociation constant, usually derived from enzyme kinetics or from competition with a known ligand.

As for `CC(C)(Cc1coc(C2(C)C(=O)Nc3nc(-c4nn(Cc5ccc(F)cc5F)c5cc(Cl)ccc45)nc(N)c32)n1)C(=O)O` (centres unmarked) [Example 178A, 3-(2-{4-amino-2-[6-chloro-1-(2,4-difluorobenzyl)-1H-indazol-3-yl]-5-methyl-6-oxo-6,7-dihydro-5H-pyrrolo[2,3-d]pyrimidin-5-yl}-1,3-oxazol-4-yl)-2,2-dimethyl-propanoic acid], in assay [1], the Ki was 0.116 nM. Further, on sGC α1/β1 heterodimer, the Emax came out at 124% and the EC50 amounted to 429 nM.
For the compound `CC(C)(Cn1cc(C2(C)C(=O)Nc3nc(-c4nn(Cc5ccccc5F)c5cc(F)ccc45)nc(N)c32)cn1)C(=O)O` (centres unmarked) [Example 192A, 3-(4-{4-amino-2-[6-fluoro-1-(2-fluorobenzyl)-1H-indazol-3-yl]-5-methyl-6-oxo-6,7-dihydro-5H-pyrrolo[2,3-d]pyrimidin-5-yl}-1H-pyrazol-1-yl)-2,2-dimethyl-propanoic acid], the inhibitory constant (Ki) in assay [1] came out at 0.116 nM. At sGC α1/β1 heterodimer, the Emax stood at 103% and the EC50 is 1040 nM.
The like results for `CCCCn1nc(-c2nc(N)c3c(n2)NC(=O)[C@@]3(C)c2ccc(CCC(=O)O)cc2)c2ccc(C)nc21` [Example 111B, (S)-3-{4-{4-amino-2-(1-butyl-6-methyl-1H-pyrazolo[3,4-b]pyridin-3-yl)-5-methyl-6-oxo-6,7-dihydro-5H-pyrrolo[2,3-d]pyrimidin-5-yl}phenyl}propanoic acid] were, in that order, 1.11 nM, 86% and 9250 nM.
For the compound `Cc1cccc(Cn2nc(-c3nc(N)c4c(n3)NC(=O)C4(C)c3nc(CC(C)(C)C(=O)O)co3)c3ccccc32)c1` (centres unmarked) [Example 226A, 3-(2-{4-amino-5-methyl-2-[1-(3-methylbenzyl)-1H-indazol-3-yl]-6-oxo-6,7-dihydro-5H-pyrrolo[2,3-d]pyrimidin-5-yl}-1,3-oxazol-4-yl)-2,2-dimethyl-propanoic acid], the inhibitory constant (Ki) in assay [1] was determined as 0.176 nM. Also, at sGC α1/β1 heterodimer, the Emax amounted to 112% and the EC50 amounted to 355 nM.
For `CC1(c2ccc(CCc3nn[nH]n3)cn2)C(=O)Nc2nc(-c3nn(Cc4ccccc4F)c4cc(Cl)ccc34)nc(N)c21` (single isomer, unassigned) [Example 247A, 5-{5-[2-(2H-tetrazol-5-yl)ethyl]pyridin-2-yl}-4-amino-2-[6-chloro-1-(2-fluorobenzyl)-1H-indazol-3-yl]-5-methyl-5,7-dihydro-6H-pyrrolo[2,3-d] pyrimidin-6-one], in assay [1], the Ki stood at 0.242 nM. Besides, the EC50 on sGC α1/β1 heterodimer was 4020 nM.
Turning to `CC(C)(Cc1coc(C2(C)C(=O)Nc3nc(-c4nn(CC5CCCCO5)c5cc(F)ccc45)nc(N)c32)n1)C(=O)O` (single isomer, unassigned) [Example 134AB, 3-{2-[4-amino-2-{6-fluoro-1-[tetrahydro-2H-pyran-2-ylmethyl]-1H-indazol-3-yl}-5-methyl-6-oxo-6,7-dihydro-5H-pyrrolo[2,3-d]pyrimidin-5-yl]-1,3-oxazol-4-yl}-2,2-dimethylpropanoic acid], the Ki in assay [1] was 0.461 nM.
The same measure, in the same setting: in the case of `CC1(c2ccc(C(=O)O)cc2)C(=O)Nc2nc(-c3nn(CCC(F)(F)C(F)(F)F)c4cc(Cl)ccc34)nc(N)c21` (centres unmarked) [Example 155B, 4-{4-amino-2-[6-chloro-1-(3,3,4,4,4-pentafluorobutyl)-1H-indazol-3-yl]-5-methyl-6-oxo-6,7-dihydro-5H-pyrrolo[2,3-d]pyrimidin-5-yl} benzoic acid] it was 0.42 nM; in that of `CC(C)(Cc1coc(C2(C)C(=O)Nc3nc(-c4nn(CC5CCCCO5)c5ncccc45)nc(N)c32)n1)C(=O)O` (single isomer, unassigned) [Example 124AB, 3-{2-[4-amino-5-methyl-6-oxo-2-{1-[tetrahydro-2H-pyran-2-ylmethyl]-1H-pyrazolo[3,4-b]pyridin-3-yl}-6,7-dihydro-5H-pyrrolo[2,3-d]pyrimidin-5-yl]-1,3-oxazol-4-yl}-2,2-dimethylpropanoic acid], 0.617 nM.

The values above are taken from patent US10030027B2, “Soluble guanylate cyclase stimulators” (MERCK SHARP & DOHME CORP., priority 2015, dated 2018).
